This is an account of results in US20160213499A1, “BIODEGRADABLE ENDOPROSTHESES AND METHODS FOR THEIR FABRICATION” (Elixir Medical Corporation, priority 2015, published 2016).

A short description of the data set: Pharmacokinetic release profile of novolimus from a stent (FIG. 35). Format: in vivo.

In turn, `CO[C@@H]1C[C@H](C[C@@H](C)[C@@H]2CC(=O)[C@H](C)/C=C(\C)[C@@H](O)[C@@H](OC)C(=O)[C@H](C)C[C@H](C)/C=C/C=C/C=C(\C)[C@@H](O)C[C@@H]3CC[C@@H](C)[C@@](O)(O3)C(=O)C(=O)N3CCCC[C@H]3C(=O)O2)CC[C@H]1O` [novolimus, 16-O-desmethyl-rapamycin] gave a tissue drug concentration (at 90 days) of 0.5 ng/mg. For the same compound, the drug released result (in one month) is “over 85%”.
